Results: patent US5872107A, “Treatment of urogenital cancer with boron neutron capture therapy” (Emory University, priority 1997, dated 1999)
“And” between values parts separate entries of the source, which are not always exact repeats. Equal values may be shown once. “Also recorded” adds a separate entry of the source.

Experiments:
[1] = Brain uptake of CDU after loading dose and three hour intravenous infusion; type: in vivo, Sprague-Dawley rats
Protocol: Two adult male sprague-dawley rats weighing 305 and 312 g were used to examine the brain uptake of CDU. A loading dose of 5 mg/kg CDU in […] of DMSO was administered intravenously over a one minute period followed by three hour infusion of CDU at the rate of 5 mg/h/kg (50 μl/h) using an infusion […]. At the end of infusion blood samples were collected and rats were sacrificed. The brains were dissected and frozen at -20° C. until analysis.
Concentrations of CDU in plasma, brain, and urine were determined by HPLC. For the determination of CDU in brain, the brain tissue was homogenized in a 1:2 (g:ml) ratio with isotonic sodium phosphate buffer, pH 7.4. To 200 μl of plasma or brain homogenate in a glass test tube, 50 μl of internal standard (20 μg/ml progesterone) and 5 ml of methylene chloride was added. Tubes were shaken for 15 minutes at low speed on a shaker, centrifuged for 5 minutes at 2000 rpm, and the plasma layer was aspirated off using a vacuum system. The remaining methylene chloride was transferred to a glass culture tube and evaporated to dryness under a stream of nitrogen gas at ambient temperature. The residue was reconstituted with 250 μl of methanol and injected onto HPLC system.

[2] = tested on: xenographed human prostate tumor; assay: Accumulation of CDU in xenographed human prostate tumor, brain and serum of nude mice; type: in vivo
Excerpt: The development of the immunodeficient athymic nude mouse has permitted the establishment of human tumors in serial transplantation which provides a representative model of the human disease state. This system, which uses the subcutaneous or subrenal capsule assay is particularly useful in assessing new therapeutic strategies in the treatment of human malignancies and ensures the availability of a constant source of non-attenuated fresh human tumor cells.
Any of these systems can be used to evaluate the extent of accumulation of a selected boron-containing compound in a selected urogenital cancer cell line, or the effect of irradiation of the accumulated compound on that cell line. A detailed example of the evaluation of the accumulation of CDU in a xenographed human prostate tumor obtained from nude mice treated intraperitoneally with 5 mg/kg of tritiated CDU (15 μCi/mouse) is provided in Example 5.
To analyze the concentration of ^10 B-containing compounds in urogenital tissue, the tumor is removed from the animal and then lyophylized. The ^10 B-containing compounds are extracted with a methanol/water solution, and then counted using known methods.
Table 1 provides a summary of the accumulation of CDU in a xenographed human prostate tumor on nude mice treated intraperitoneally with 5 mg/kg of tritiated CDU (15 μCu/mouse). […] The compound partitions in a ratio of approximately 2:1 in the prostate versus blood serum.

[3] = tested on: human lymphoma (CEM) cells; assay: Cellular uptake and intracellular phosphorylation, CEM cells; type: cell-based
Excerpt: Carboranyl-containing nucleosides and oligonucleotides, which are lipophilic and have a high content of boron atoms, are particularly suited for use in BNCT of urogenital tumors. Preferred compounds include 5-carboranyl-2'-deoxyuridine (CDU) and 5-o-carboranyl-1-(2-deoxy-2-fluoro-β-D-arabinofuranosyl)uracil (CFAU). […] The entrapment of this molecule in cells allows for the enhancement of the tumor-to-blood ratio for BNCT. CFAU has increased glycosidic bond stability conferred by the β-fluorine group positioned on the 2'-carbon of the nucleoside.
It has been discovered that boron neutron capture therapy, optionally combined with antisense oligonucleotide therapy, can be used in the treatment of urogenital cancer, and in particular, that of the prostate, bladder, and kidney. Any boron-containing compound that is sufficiently lipophilic to pass through the appropriate urogenital membranes in a quantity high enough to achieve therapy on irradiation with low-energy neutrons can be used. Carboranyl-containing nucleosides and oligonucleotides, which are lipophilic and have a high content of boron atoms, are particularly suited for use in BNCT of urogenital cancer. Preferred compounds include 5-carboranyl-2'-deoxyuridine (CDU) and 5-o-carboranyl-1-(2-deoxy-2-fluoro-β-D-arabinofuranosyl)uracil (CFAU). […] The entrapment of this molecule in cells allows the enhancement of the tumor-to-blood ratio for BNCT. CFAU has increased glycosidic bond stability conferred by the β-fluorine group positioned on the 2'-carbon of the nucleoside.

[4] = Plasma protein binding of CDU by equilibrium dialysis; type: in vitro ADME, rat
Protocol: Protein binding was determined by equilibrium dialysis. Various amounts of CDU were added to drug free rat plasma to yield CDU concentrations ranging from 0.5 to 100 μg/ml. Plexiglass dialysis cells and dialysis membrane (Spectrapor II, Spectrum Medical Industries, Los Angeles, Calif.) were used. Plasma (0.8 ml) containing different concentrations of CDU was dialyzed against 0.8 ml of isotonic sodium phosphate buffer, pH 7.4, in a shaking water bath at 37° C. for 16 hours. The post-dialysis plasma and buffer volumes were measured and samples were frozen at -20° C. until analysis. The binding data was corrected for fluid shifts that occurred during dialysis. Experiments were performed in duplicate.
This concentration range encompassed those observed following intravenous administration of 25 mg/kg CDU to rats. Assuming that the lipophilic compound CDU is bound predominantly by hydrophobic interactions to albumin, the equilibrium association constant for the protein binding of CDU was approximately 4×10^4 M^-1.

[5] = Toxicity study: weight change and survival of normal Swiss mice; type: in vivo, Swiss female mice; details: 30 mg/kg/day i.p.
Protocol: A toxicity study was conducted on 6-week-old Swiss female mice treated with CDU and CFAU at 30 mg/kg/day. The compounds were prepared in sterile DMSO and injected intraperitoneally (0.1 mL). DMSO and water were used as controls, with the same injection volume as that used for the CDU and CFAU solutions. The dosing schedule used was once a day for 6 days, and the mice were weighed biweekly for 28 days. Results shown in Table 3 somewhat correlate with the cytotoxicity assays in vitro.

[6] = i.v. infusion to steady state, each of two rats, 5 mg/kg, 180 min
[7] = brain, 1 hr after CDU, 5 mg/kg tritiated CDU i.p.
[8] = brain, 2 hr after CDU, 5 mg/kg tritiated CDU i.p.
[9] = serum, 1 hr after CDU, 5 mg/kg tritiated CDU i.p.
[10] = serum, 2 hr after CDU, 5 mg/kg tritiated CDU i.p.
[11] = tumor, 2 hr after CDU, 5 mg/kg tritiated CDU i.p.

With 5-carboranyl-2'-deoxyuridine [CDU] the “brain:unbound plasma CDU ratio” value ([1]; i.v. infusion to steady state, each of two rats) was 10.26 and 7.87, the “brain CDU concentration” value [1, 6] was 2.77 µg/mL and 1.81 µg/mL and the “brain:total plasma CDU concentration ratio” value [1, 6] was 0.47 and 0.36. For the same substance, the “total plasma CDU concentration” value [1, 6] was 5.92 µg/mL and 5.01 µg/mL, the “brain concentrations as % of total plasma CDU concentrations” value ([1]; i.v. infusion to steady state, two rats, 5 mg/kg, 180 min) was 36 to 47% and the “brain:plasma ratio based on unbound vs total plasma concentrations” value ([1]; unbound compared to total) was 20 fold. The “Mean DPM/mg of dry weight, brain, 1 hr” value [2, 7] was 42.8 DPM/mg of dry weight, the “pmole/mg of dry weight, brain, 1 hr” value [2, 7] was 0.32 pmole/mg of dry weight and the “Mean DPM/mg of dry weight, brain, 2 hr” value [2, 8] was 23.4 DPM/mg of dry weight. For the same substance, the “pmole/mg of dry weight, brain, 2 hr” value [2, 8] was 0.17 pmole/mg of dry weight, the “accumulation in the prostate cancer cells (in words)” value ([2]; over brain tissue and serum, 5 mg/kg tritiated CDU i.p.) was “significantly accumulates in the prostate cancer cells, and preferentially so, over brain tissue and serum” and the “Mean DPM/mg of dry weight, serum, 1 hr” value [2, 9] was 181.0 DPM/mg of dry weight. For the same substance, the “pmole/mg of dry weight, serum, 1 hr” value [2, 9] was 1.33 pmole/mg of dry weight, the “Mean DPM/mg of dry weight, serum, 2 hr” value [2, 10] was 111.0 DPM/mg of dry weight and the “pmole/mg of dry weight, serum, 2 hr” value [2, 10] was 0.82 pmole/mg of dry weight. The “pmole/mg of dry weight, tumor, 1 hr” value ([2]; tumor, 1 hr after CDU, 5 mg/kg tritiated CDU i.p.) was 3.60 pmole/mg of dry weight, the “Mean DPM/mg of dry weight, tumor, 1 hr” value ([2]; tumor, 1 hr after CDU, 5 mg/kg tritiated CDU i.p. (15 μCi/mouse)) was 489.1 DPM/mg of dry weight and the “Mean DPM/mg of dry weight, tumor, 2 hr” value [2, 11] was 256.7 DPM/mg of dry weight. For the same substance, the “pmole/mg of dry weight, tumor, 2 hr” value [2, 11] was 1.89 pmole/mg of dry weight, the “intracellular formation of CDU 5'-monophosphate (in words)” value ([3]; cells not separated (CEM and PBM named)) was “CDU 5'-monophosphate is formed intracellularly; also recorded: CDU-5'-monophosphate is formed intracellularly” and the “intracellular phosphorylation in CEM cells (in words)” value ([3]; human lymphoma (CEM) cells) was “intracellularly phosphorylated”. For the same substance, the “uptake by CEM cells (in words)” value ([3]; human lymphoma (CEM) cells) was “taken up”, the “concentration dependence of plasma protein binding (in words)” value ([4]; 0.5 μg/ml to 100 μg/ml) was “independent of the nucleoside concentration; also recorded: in a linear manner” and the “bound to plasma proteins” value ([4]; 0.5 μg/ml to 100 μg/ml, rat plasma, 960 min) was 95.5%. The “equilibrium association constant for the protein binding” value ([4]; assuming binding predominantly to albumin, 960 min) was “approximately 4×10^4 M^-1”, the “average fraction bound to the plasma proteins” value ([4]; rat plasma, 37° C., pH 7.4, 960 min) was 0.95±0.02 and the “weight loss after 1 week (in words)” value ([5]; CFAU and CDU compared) was “comparable weight loss after 1 week”. The “weight recovery at 4 weeks (in words)” value ([5]; surviving animals) was “all the surviving animals recovered their weight loss to control untreated levels”, the “% of weight gained or lost on week 1” value ([5]; week 1, once a day for 6 days) was -7.4% and the “% of weight gained or lost on week 2” value ([5]; week 2, once a day for 6 days) was 0.1%. The “% of weight gained or lost on week 3” value ([5]; week 3, once a day for 6 days) was 4.8%, the “% of weight gained or lost on week 4” value ([5]; week 4, once a day for 6 days) was 11.2% and the “survival at week 4, alive/total” value ([5]; week 4, once a day for 6 days) was 5/5. The “survival at week 4 (%)” value ([5]; week 4, once a day for 6 days, 40320 min) was 100%.
